Results from patent US20250235543A1, “MODIFIED PROTEINS AND PROTEIN DEGRADERS” (Cullgen (Shanghai), Inc., priority 2021, published 2025).
Read-outs that look alike come from different tables or passages of the source.

How the values were obtained:
[1] = target: T1, CDK4 (Homo sapiens, UniProt P11802); assay: CDK4 percentage degradation in Calu-1 cells (immunoblotting); type: cell-based; conditions: for inhibition at 0.2 µM: read-out: CDK4 Degradation (200 nM); for inhibition at 10 µM: read-out: CDK4 Degradation (10 μM)
T1 construct: endogenous in cells; host or cells: Calu-1
T1 sequence (P11802 2-303 limits assumed): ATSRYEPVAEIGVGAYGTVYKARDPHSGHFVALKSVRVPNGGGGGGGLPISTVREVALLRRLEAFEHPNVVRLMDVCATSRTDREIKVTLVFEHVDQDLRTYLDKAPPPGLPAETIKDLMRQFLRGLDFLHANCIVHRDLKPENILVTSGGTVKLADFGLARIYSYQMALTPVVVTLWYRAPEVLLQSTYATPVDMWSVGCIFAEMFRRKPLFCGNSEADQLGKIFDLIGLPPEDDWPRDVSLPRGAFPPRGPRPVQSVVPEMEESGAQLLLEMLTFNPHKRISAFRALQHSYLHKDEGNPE
T1 sequence (P24385 whole entry partner): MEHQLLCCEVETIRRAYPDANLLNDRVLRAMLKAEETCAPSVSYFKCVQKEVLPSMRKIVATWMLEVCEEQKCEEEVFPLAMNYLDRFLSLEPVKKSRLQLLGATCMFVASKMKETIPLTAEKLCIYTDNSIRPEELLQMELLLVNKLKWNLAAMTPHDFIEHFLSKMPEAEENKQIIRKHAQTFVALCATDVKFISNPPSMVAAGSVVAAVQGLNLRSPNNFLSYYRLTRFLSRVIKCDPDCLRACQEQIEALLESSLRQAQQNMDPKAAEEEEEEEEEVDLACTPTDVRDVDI
T1 sequence (Q16531 2-1140 limits assumed, further chain): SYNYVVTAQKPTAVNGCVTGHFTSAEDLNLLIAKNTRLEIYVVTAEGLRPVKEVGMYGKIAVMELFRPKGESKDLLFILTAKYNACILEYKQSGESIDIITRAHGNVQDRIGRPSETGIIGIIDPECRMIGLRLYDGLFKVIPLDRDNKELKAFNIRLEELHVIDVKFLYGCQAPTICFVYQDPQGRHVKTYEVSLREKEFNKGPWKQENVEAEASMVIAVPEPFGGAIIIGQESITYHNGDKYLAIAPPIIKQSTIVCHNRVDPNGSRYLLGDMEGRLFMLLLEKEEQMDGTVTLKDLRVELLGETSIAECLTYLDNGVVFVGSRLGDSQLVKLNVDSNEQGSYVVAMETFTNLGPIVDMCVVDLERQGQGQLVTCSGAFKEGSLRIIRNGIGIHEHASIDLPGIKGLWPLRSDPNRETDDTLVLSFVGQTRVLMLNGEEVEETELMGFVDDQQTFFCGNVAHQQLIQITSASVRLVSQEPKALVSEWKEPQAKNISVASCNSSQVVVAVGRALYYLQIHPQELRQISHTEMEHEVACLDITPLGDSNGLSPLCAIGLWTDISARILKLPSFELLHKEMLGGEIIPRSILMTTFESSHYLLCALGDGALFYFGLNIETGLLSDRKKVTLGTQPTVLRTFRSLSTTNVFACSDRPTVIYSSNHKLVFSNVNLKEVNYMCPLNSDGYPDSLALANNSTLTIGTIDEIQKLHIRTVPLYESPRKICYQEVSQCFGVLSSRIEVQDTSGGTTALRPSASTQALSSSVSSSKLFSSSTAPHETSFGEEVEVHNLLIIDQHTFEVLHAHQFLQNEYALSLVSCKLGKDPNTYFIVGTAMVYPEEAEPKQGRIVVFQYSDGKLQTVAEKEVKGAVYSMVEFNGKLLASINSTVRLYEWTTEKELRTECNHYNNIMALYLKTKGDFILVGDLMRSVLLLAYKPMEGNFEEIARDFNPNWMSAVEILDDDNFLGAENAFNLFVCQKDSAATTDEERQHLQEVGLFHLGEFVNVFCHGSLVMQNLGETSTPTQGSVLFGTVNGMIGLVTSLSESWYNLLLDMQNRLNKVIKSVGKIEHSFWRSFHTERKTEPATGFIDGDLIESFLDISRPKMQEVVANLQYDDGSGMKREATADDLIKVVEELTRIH
How it was run: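 Cultured cells were rinsed once in cold PBS and lysed in cold RIPA buffer containing protease and phosphatase inhibitors, with gentle agitation at 4° C. for 30 min. Lysates were centrifuged at 13,000 rpm for 10 min at 4° C., and protein was quantified by BCA. Samples were then separated by SDS-PAGE, detected with ECL, and the CDK4 bands quantified in Image Lab.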

[2] = tested on: cyclin D1; assay: Cyclin D1 percentage degradation in Calu-1 cells (immunoblotting); type: cell-based; conditions: 16 hours
How it was run: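 Cells were rinsed once in cold PBS and lysed in cold RIPA buffer containing protease and phosphatase inhibitors, with gentle agitation at 4° C. for 30 min. Lysates were spun at 13,000 rpm for 10 min at 4° C., protein was measured by BCA, and samples were boiled in Laemmli buffer at 99° C. for 5 min before SDS-PAGE immunoblotting.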

| Structure (SMILES) | inhibition at 0.2 µM ([1]; Calu-1 cells, 200 nM, 16 hours) [%] | inhibition at 10 µM ([1]; Calu-1 cells, 16 hours) [%] | CyclinD1 Degradation (200 nM) [2] | inhibition at 0.2 µM ([1]; Calu-1, 16 h) [%] | CyclinD1 Degradation (10 μM) [2] |
| --- | --- | --- | --- | --- | --- |
| CC(=O)c1c(C)c2cnc(Nc3ccc(N4CCN(C(=O)CNc5ccc(C)c(C(=O)Nc6nc(C)c(C)s6)c5)CC4)cn3)nc2n(C2CCCC2)c1=O [CPD-135, 5-((2-(4-(6-((6-Acetyl-8-cyclopentyl-5-methyl-7-oxo-7,8-dihydropyrido[2,3-d]pyrimidin-2-yl)amino)pyridin-3-yl)piperazin-1-yl)-2-oxoethyl)amino)-N-(4,5-dimethylthiazol-2-yl)-2-methylbenzamide] |  |  | D (protein percentage degradation <30%) | < 30 |  |
| CC(=O)c1c(C)c2cnc(Nc3ccc(N4CCN(C(=O)CCOCCOCCOCCOCCOCCOCCNc5ccc(C)c(C(=O)Nc6nc(C)c(C)s6)c5)CC4)cn3)nc2n(C2CCCC2)c1=O [CPD-131, 5-((21-(4-(6-((6-Acetyl-8-cyclopentyl-5-methyl-7-oxo-7,8-dihydropyrido[2,3-d]pyrimidin-2-yl)amino)pyridin-3-yl)piperazin-1-yl)-21-oxo-3,6,9,12,15,18-hexaoxahenicosyl)amino)-N-(4,5-dimethylthiazol-2-yl)-2-methylbenzamide] |  |  | D (protein percentage degradation <30%) | < 30 |  |
| Cc1nc(NC(=O)c2ccccc2NC(=O)CCCCCCCCNC(=O)CN2CCN(c3ccc(Nc4ncc5cc(C(=O)N(C)C)n(C6CCCC6)c5n4)nc3)CC2)sc1C [CPD-293, 7-Cyclopentyl-2-((5-(4-(2-((9-((2-((4,5-dimethylthiazol-2-yl)carbamoyl)phenyl)amino)-9-oxononyl)amino)-2-oxoethyl)piperazin-1-yl)pyridin-2-yl)amino)-N,N-dimethyl-7H-pyrrolo[2,3-d]pyrimidine-6-carboxamide] |  | 50 to 80 |  |  | A (protein percentage degradation >= 80%) |
| Cc1nc(NC(=O)c2ccccc2NC(=O)CCOCCOCCOCCOCCOCCNC(=O)CN2CCN(c3ccc(Nc4ncc(F)c(-c5cc(F)c6nc(C)n(C(C)C)c6c5)n4)nc3)CC2)sc1C [CPD-312, N-(4,5-Dimethylthiazol-2-yl)-2-(1-(4-(6-((5-fluoro-4-(4-fluoro-1-isopropyl-2-methyl-1H-benzo[d]imidazol-6-yl)pyrimidin-2-yl)amino)pyridin-3-yl)piperazin-1-yl)-2-oxo-6,9,12,15,18-pentaoxa-3-azahenicosan-21-amido)benzamide] |  | < 30 |  |  | A (protein percentage degradation >= 80%) |
| CC(=O)c1c(C)c2cnc(Nc3ccc(N4CCN(C(=O)CCOCCC(=O)Nc5ccccc5C(=O)Nc5nc(C)c(C)s5)CC4)cn3)nc2n(C2CCCC2)c1=O [CPD-181, 2-(3-(3-(4-(6-((6-Acetyl-8-cyclopentyl-5-methyl-7-oxo-7,8-dihydropyrido[2,3-d]pyrimidin-2-yl)amino)pyridin-3-yl)piperazin-1-yl)-3-oxopropoxy)propanamido)-N-(4,5-dimethylthiazol-2-yl)benzamide] |  |  | D (protein percentage degradation <30%) | < 30 |  |
| CC(=O)c1c(C)c2cnc(Nc3ccc(N4CCN(C(=O)CCOCCOCCNc5ccc(C)c(C(=O)Nc6nc(C)c(C)s6)c5)CC4)cn3)nc2n(C2CCCC2)c1=O [CPD-130, 5-((2-(2-(3-(4-(6-((6-Acetyl-8-cyclopentyl-5-methyl-7-oxo-7,8-dihydropyrido[2,3-d]pyrimidin-2-yl)amino)pyridin-3-yl)piperazin-1-yl)-3-oxopropoxy)ethoxy)ethyl)amino)-N-(4,5-dimethylthiazol-2-yl)-2-methylbenzamide] |  |  | D (protein percentage degradation <30%) | < 30 |  |
| Cc1nc(NC(=O)c2ccccc2NC(=O)CCOCCNC(=O)CN2CCN(c3ccc(Nc4ncc5cc6n(c5n4)C4(CCCCC4)CNC6=O)nc3)CC2)sc1C [CPD-322, N-(4,5-Dimethylthiazol-2-yl)-2-(3-(2-(2-(4-(6-((6′-oxo-7′,8′-dihydro-6′H-spiro[cyclohexane-1,9′-pyrazino[1′,2′:1,5]pyrrolo[2,3-d]pyrimidin]-2′-yl)amino)pyridin-3-yl)piperazin-1-yl)acetamido)ethoxy)propanamido)benzamide] |  | 50 to 80 |  |  | A (protein percentage degradation >= 80%) |
| CC(=O)c1c(C)c2cnc(Nc3ccc(N4CCN(CC(=O)NCCOCCOCCOCCOCCOCCNc5ccc(C)c(C(=O)Nc6nc(C)c(C)s6)c5)CC4)cn3)nc2n(C2CCCC2)c1=O [CPD-097, 5-((1-(4-(6-((6-Acetyl-8-cyclopentyl-5-methyl-7-oxo-7,8-dihydropyrido[2,3-d]pyrimidin-2-yl)amino)pyridin-3-yl)piperazin-1-yl)-2-oxo-6,9,12,15,18-pentaoxa-3-azaicosan-20-yl)amino)-N-(4,5-dimethylthiazol-2-yl)-2-methylbenzamide] | 50 to 80 |  | A (protein percentage degradation >=80%) |  |  |
| Cc1nc(NC(=O)c2ccccc2NC(=O)CCCCCCCCNC(=O)CN2CCN(c3ccc(Nc4ncc(F)c(-c5cc(F)c6nc(C)n(C(C)C)c6c5)n4)nc3)CC2)sc1C [CPD-307, N-(4,5-Dimethylthiazol-2-yl)-2-(9-(2-(4-(6-((5-fluoro-4-(4-fluoro-1-isopropyl-2-methyl-1H-benzo[d]imidazol-6-yl)pyrimidin-2-yl)amino)pyridin-3-yl)piperazin-1-yl)acetamido)nonanamido)benzamide] |  | < 30 |  |  | D (protein percentage degradation < 30%) |

Further lines, with some results ahead:

| inhibition at 0.2 µM ([1]; Calu-1 cells, 200 nM, 16 hours) [%] | inhibition at 10 µM ([1]; Calu-1 cells, 16 hours) [%] | Structure (SMILES) | CyclinD1 Degradation (200 nM) [2] | inhibition at 0.2 µM ([1]; Calu-1, 16 h) [%] | CyclinD1 Degradation (10 μM) [2] |
| --- | --- | --- | --- | --- | --- |
| 50 to 80 |  | CC(=O)c1c(C)c2cnc(Nc3ccc(N4CCN(CC(=O)NCCOCCOCCC(=O)Nc5ccc(F)cc5C(=O)Nc5nc(C)c(C)s5)CC4)cn3)nc2n(C2CCCC2)c1=O [CPD-152, 2-(3-(2-(2-(2-(4-(6-((6-Acetyl-8-cyclopentyl-5-methyl-7-oxo-7,8-dihydropyrido[2,3-d]pyrimidin-2-yl)amino)pyridin-3-yl)piperazin-1-yl)acetamido)ethoxy)ethoxy)propanamido)-N-(4,5-dimethylthiazol-2-yl)-5-fluorobenzamide] | A (protein percentage degradation >=80%) |  |  |
| < 30 |  | CC(=O)c1c(C)c2cnc(Nc3ccc(N4CCN(CC(=O)NCCOCCOCCC(=O)Nc5ccccc5C(=O)Nc5ccc(C#N)nn5)CC4)cn3)nc2n(C2CCCC2)c1=O [CPD-369, 2-(3-(2-(2-(2-(4-(6-((6-Acetyl-8-cyclopentyl-5-methyl-7-oxo-7,8-dihydropyrido[2,3-d]pyrimidin-2-yl)amino)pyridin-3-yl)piperazin-1-yl)acetamido)ethoxy)ethoxy)propanamido)-N-(6-cyanopyridazin-3-yl)benzamide] | D (protein percentage degradation <30%) |  |  |
| < 30 |  | CC(=O)c1c(C)c2cnc(Nc3ccc(N4CCN(CC(=O)NCCCCCNC(=O)CNc5ccc(C(=O)Nc6ncc(C)s6)c(C)c5)CC4)cn3)nc2n(C2CCCC2)c1=O [CPD-015, 4-((2-((5-(2-(4-(6-((6-Acetyl-8-cyclopentyl-5-methyl-7-oxo-7,8-dihydropyrido[2,3-d]pyrimidin-2-yl)amino)pyridin-3-yl)piperazin-1-yl)acetamido)pentyl)amino)-2-oxoethyl)amino)-2-methyl-N-(5-methylthiazol-2-yl)benzamide] | D (protein percentage degradation <30%) |  |  |
| < 30 |  | CC(=O)c1c(C)c2cnc(Nc3ccc(N4CCN(CC(=O)NCCOCCOCCC(=O)Nc5ccccc5C(=O)Nc5cc(C(F)(F)F)n(C)n5)CC4)cn3)nc2n(C2CCCC2)c1=O [CPD-069, 2-(3-(2-(2-(2-(4-(6-((6-Acetyl-8-cyclopentyl-5-methyl-7-oxo-7,8-dihydropyrido[2,3-d]pyrimidin-2-yl)amino)pyridin-3-yl)piperazin-1-yl)acetamido)ethoxy)ethoxy)propanamido)-N-(1-methyl-5-(trifluoromethyl)-1H-pyrazol-3-yl)benzamide] | D (protein percentage degradation <30%) |  |  |
| 50 to 80 |  | CC(=O)c1c(C)c2cnc(Nc3ccc(N4CCN(CC(=O)NCCOCCOCCC(=O)Nc5cc6c(cc5C(=O)Nc5ccc(C)cn5)CCCN6)CC4)cn3)nc2n(C2CCCC2)c1=O [CPD-358, 7-(3-(2-(2-(2-(4-(6-((6-Acetyl-8-cyclopentyl-5-methyl-7-oxo-7,8-dihydropyrido[2,3-d]pyrimidin-2-yl)amino)pyridin-3-yl)piperazin-1-yl)acetamido)ethoxy)ethoxy)propanamido)-N-(5-methylpyridin-2-yl)-1,2,3,4-tetrahydroquinoline-6-carboxamide] | A (protein percentage degradation >=80%) |  |  |
| < 30 |  | CCCCNc1ccc(NC(=O)CCOCCOCCNC(=O)CN2CCN(c3ccc(Nc4ncc5c(C)c(C(C)=O)c(=O)n(C6CCCC6)c5n4)nc3)CC2)c(C(=O)Nc2nc(C)c(C)s2)c1 [CPD-148, 2-(3-(2-(2-(2-(4-(6-((6-Acetyl-8-cyclopentyl-5-methyl-7-oxo-7,8-dihydropyrido[2,3-d]pyrimidin-2-yl)amino)pyridin-3-yl)piperazin-1-yl)acetamido)ethoxy)ethoxy)propanamido)-5-(butylamino)-N-(4,5-dimethylthiazol-2-yl)benzamide] | D (protein percentage degradation <30%) |  |  |
